# According to BindingDB's records for doi:10.1021/jm050175p (Wyeth Research, 2005):
# Molecular target: Tyrosine-protein kinase ABL1 (Homo sapiens, UniProt P00519)
# Test: Homogeneous Time-resolved Fluorescence (HTRF) Assay
# Tyrosine-protein kinase ABL1, sequence (P00519 whole entry): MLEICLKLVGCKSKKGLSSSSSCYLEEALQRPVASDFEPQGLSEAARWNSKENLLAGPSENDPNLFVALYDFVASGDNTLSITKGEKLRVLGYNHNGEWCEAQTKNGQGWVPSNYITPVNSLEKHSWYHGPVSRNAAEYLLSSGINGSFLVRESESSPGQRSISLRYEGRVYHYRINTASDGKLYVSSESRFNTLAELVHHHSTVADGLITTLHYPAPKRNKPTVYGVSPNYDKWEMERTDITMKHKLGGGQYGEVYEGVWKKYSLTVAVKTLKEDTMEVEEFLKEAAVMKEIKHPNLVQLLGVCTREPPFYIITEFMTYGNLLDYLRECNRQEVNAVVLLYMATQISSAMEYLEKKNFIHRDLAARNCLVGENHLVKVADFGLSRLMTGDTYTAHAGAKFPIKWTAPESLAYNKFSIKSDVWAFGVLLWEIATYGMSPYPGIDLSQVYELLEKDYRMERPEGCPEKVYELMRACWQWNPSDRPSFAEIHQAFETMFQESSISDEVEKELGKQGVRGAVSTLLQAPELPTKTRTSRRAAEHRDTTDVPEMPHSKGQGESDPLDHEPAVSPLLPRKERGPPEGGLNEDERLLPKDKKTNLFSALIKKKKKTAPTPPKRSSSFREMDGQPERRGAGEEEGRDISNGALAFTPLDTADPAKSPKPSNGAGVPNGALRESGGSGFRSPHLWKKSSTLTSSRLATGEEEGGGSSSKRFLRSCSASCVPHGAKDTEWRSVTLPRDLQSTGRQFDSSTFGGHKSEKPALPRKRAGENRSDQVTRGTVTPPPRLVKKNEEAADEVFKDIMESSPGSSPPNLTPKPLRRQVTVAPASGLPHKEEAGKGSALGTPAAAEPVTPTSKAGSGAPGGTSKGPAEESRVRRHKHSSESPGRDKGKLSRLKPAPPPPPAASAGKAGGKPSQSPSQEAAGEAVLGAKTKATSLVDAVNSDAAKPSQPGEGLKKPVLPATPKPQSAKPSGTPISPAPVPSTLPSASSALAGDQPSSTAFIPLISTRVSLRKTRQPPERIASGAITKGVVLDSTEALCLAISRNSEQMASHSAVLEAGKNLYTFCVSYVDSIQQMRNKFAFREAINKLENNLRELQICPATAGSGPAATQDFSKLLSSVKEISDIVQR
row,Structure (SMILES),IC50 [nM]
1,"CCOc1cc(Nc2c(C#N)cnc3cc(OCC4CCN(C)CC4)c(OC)cc23)c(Cl)cc1Cl [4-[(2,4-Dichloro-5-ethoxyphenyl)amino]-6-methoxy-7-[(1-methylpiperidin-4-yl)methoxy]quinoline-3-carbonitrile]",1500
2,"COc1cc(Nc2c(C#N)cnc3cc(OCC4CCCCN4C)c(OC)cc23)c(Cl)cc1Cl (centres undefined) [4-[(2,4-dichloro-5-methoxyphenyl)amino]-6-methoxy-7-[(1-methylpiperidin-2-yl)methoxy]quinoline-3-carbonitrile]",56
3,"COc1cc(Nc2c(C#N)cnc3cc(OCC4CCCN(C)C4)c(OC)cc23)c(Cl)cc1Cl (centres undefined) [4-[(2,4-dichloro-5-methoxyphenyl)amino]-6-methoxy-7-[(1-methylpiperidin-3-yl)methoxy]quinoline-3-carbonitrile]",4.6
4,"COc1cc(Nc2c(C#N)cnc3cc(OC4CCN(C)CC4)c(OC)cc23)c(Cl)cc1Cl [4-[(2,4-dichloro-5-methoxyphenyl)amino]-6-methoxy-7-[(1-methylpiperidin-4-yl)oxy]quinoline-3-carbonitrile]",89
